In brackets after ≈: the same amount, converted by molar mass.
How the values were obtained:
[1] = molecular target: T1, Squalene Synthetase (Rattus norvegicus, UniProt Q02769); test: Squalene Synthetase Assay (intrinsic squalene synthetase inhibitory activity); format: biochemical; conditions: rat liver microsomes, [4-14C]farnesyl-pyrophosphate, 30° C., 20 minutes
T1 construct: from tissue; host or cells: liver microsomes of male Charles River CD rats fed 0.1% lovastatin
T1 sequence (Q02769 1-416): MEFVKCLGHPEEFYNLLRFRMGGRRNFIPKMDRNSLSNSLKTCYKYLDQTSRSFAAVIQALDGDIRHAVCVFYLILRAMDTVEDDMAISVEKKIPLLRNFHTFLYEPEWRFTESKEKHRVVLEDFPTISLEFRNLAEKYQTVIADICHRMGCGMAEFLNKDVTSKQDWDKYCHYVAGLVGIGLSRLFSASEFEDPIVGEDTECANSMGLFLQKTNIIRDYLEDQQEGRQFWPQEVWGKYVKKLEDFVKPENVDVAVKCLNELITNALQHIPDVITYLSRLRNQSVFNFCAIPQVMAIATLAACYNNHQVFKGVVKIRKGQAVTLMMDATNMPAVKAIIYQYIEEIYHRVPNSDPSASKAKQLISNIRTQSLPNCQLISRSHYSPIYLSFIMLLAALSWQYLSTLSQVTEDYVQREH
Experimental: The intrinsic squalene synthetase inhibitory activity of representative compounds of this invention was measured by the standard in vitro protocol described below:
Male, Charles River CD rats (120 to 150 g) were fed a diet containing 0.1% lovastatin for 4 days. The livers from these rats were homogenized in 5 volumes (ml/g) of ice cold 50 mM HEPES (4-(2-hydroxyethyl)-1-piperazine-ethanesulfonic acid), 5 mM EDTA(ethylenediaminetetraacetic acid) pH 7.5 with a Potter-Elvehjem type tissue grinder. The homogenate was centrifuged twice at 20,000×g for 15 minutes at 4° C., discarding the pellet each time. The supernatant was then centrifuged at 100,000×g for 1 hour at 4° C. The resulting microsomal pellet was resuspended in a volume of the above homogenizing buffer equal to one-fifth the volume of the original homogenate. This microsomal preparation has a protein concentration of about 7 mg/ml. The microsomal suspensions were stored in aliquots at -70° C. Squalene synthetase activity in these aliquots is stable for at least several months.
Prenyl transferase was purified to use in the enzymatic synthesis of radiolabelled farnesyl pyrophosphate. Prenyl transferase was assayed by the method of Rilling (Methods in Enzymology 110, 125-129 (1985)) and a unit of activity is defined as the amount of enzyme that will produce 1 μ mole of farnesyl pyrophosphate per minute at 30° C. in the standard assay. […]

[2] = tested on: A. nidulans R21; test: antifungal MIC, microtiter dilution assay, filamentous fungi; format: cell-based; conditions: Aspergillus nidulans, 42 hours, 28° C., read-out: Minimum Inhibitory Concentration
Experimental: (§1) The compounds are particularly active towards filamentous fungi and yeasts including Candida albicans and Cryptococcus neoformans. The sensitivity of filamentous fungi and yeast was determined using inhibitor dilution assays in microtiter format. The compounds were dissolved in DMSO at 2 mg/ml and serially diluted in 0.1M phosphate buffer, pH 7.0 in the microtiter dish from 100 to 0.006 μg/ml. A standardized spore suspension for testing the filamentous fungi was prepared by inoculating Antibiotic Medium #3 containing 1.5% agar with spores such that 1.5×10^3 colony forming units were added per well. The microtiter wells were filled with 50 μl of buffer containing compound and 50 μl of inoculated medium.
(§2) The sensitivity of yeasts was determined by inoculating yeast nitrogen base containing 1% dextrose (YNB/G) with aliquots of an overnight yeast culture grown in Yeast Morphology (YM) media at 35° C. and diluting in YNB/G to yield a final concentration of 1.5-7.5×10^3 colony forming units/well. To test the sensitivity of yeast, compound was solubilized in 10 percent aqueous DMSO at 2.56 mg/ml. The compound was diluted serially in YNB/G from 128 to 0.06 μg/ml and further diluted 1:10 in YNB/G. The wells were filled with 150 μl of media containing drug. […]

[3] = tested on: Aspergillus flavus MF383; test: as above; format: cell-based; conditions: 42 hours, 28° C., read-out: Minimum Inhibitory Concentration
Experimental: as §1, §2

[4] = tested on: C. parapsilosis MY1010; test: antifungal MIC, microtiter dilution assay, yeast; format: cell-based; conditions: Lodderomyces parapsilosis, YNB/G, 24 to 48 hours, 35° C., read-out: Minimum Inhibitory Concentration
Experimental: as §1
(§3) The sensitivity of yeasts was determined by inoculating yeast nitrogen base containing 1% dextrose (YNB/G) with aliquots of an overnight yeast culture grown in Yeast Morphology (YM) media at 35° C. and diluting in YNB/G to yield a final concentration of 1.5-7.5×10^3 colony forming units/well. To test the sensitivity of yeast, compound was solubilized in 10 percent aqueous DMSO at 2.56 mg/ml. The compound was diluted serially in YNB/G from 128 to 0.06 μg/ml and further diluted 1:10 in YNB/G. The wells were filled with 150 μl of media containing drug. The minimum inhibitory concentration (MIC) is defined as the lowest concentration to prevent growth after an incubation for 42 hours, at 28° C. for the filamentous fungi and 24 to 48 hours, at 35° C. for the yeasts. Representative of the antifungal activity are the minimum inhibitory concentration data shown below.

[5] = tested on: C. tropicalis MY1012; test: antifungal MIC, microtiter dilution assay, yeast; format: cell-based; conditions: Candida tropicalis, YNB/G, 24 to 48 hours, 35° C., read-out: Minimum Inhibitory Concentration
Experimental: as §1, §3

[6] = tested on: Candida albicans MY1055; test: antifungal MIC, microtiter dilution assay, yeast; format: cell-based; conditions: YNB/G, 24 to 48 hours, 35° C., read-out: Minimum Inhibitory Concentration
Experimental: as §1, §3

[7] = tested on: Crypt. neoformans MY1051; test: antifungal MIC, microtiter dilution assay, yeast; format: cell-based; conditions: Cryptococcus neoformans, YNB/G, 24 to 48 hours, 35° C., read-out: Minimum Inhibitory Concentration
Experimental: as §1, §3

IC50 [1]: 9 nM | MIC [2]: 1.5 mg/L (≈ 1.99 µM) | MIC [3]: 1.5 mg/L (≈ 1.99 µM) | MIC [4]: 8 mg/L (≈ 10.6 µM) | MIC [5]: 8 mg/L (≈ 10.6 µM) | MIC [6]: 16 mg/L (≈ 21.2 µM) | MIC [7]: 1 mg/L (≈ 1.32 µM)
Compound: CC(=O)OC(CCCC12OC(C(=O)O)C(O)(C(=O)O)C(C(=O)O)(O1)C(OC(=O)CCC=CC(C)CCCc1ccccc1)C2O)C(C)Cc1ccccc1 (stereo not shown) [Compound A]
